{"source": "ChEMBL document CHEMBL5126556", "about": "“Recent advances in natural anti-obesity compounds and derivatives based on in vivo evidence: A mini-review” (Eur J Med Chem, 2022)", "key": {"[1]": {"system": "Mus musculus", "experiment": "Anti-obesity activity in male C57BL/6 mouse model of high-fat diet induced obesity assessed as body weight change at 5 mg/kg, po administered thrice a week for 8 weeks relative to control", "assay_type": "functional"}, "[2]": {"experiment": "Inhibition of V-ATPase in bovine chromaffin granules incubated for 1 hrs by absorbance based assay", "assay_type": "subcellular, Bos taurus, Chromaffin granule"}, "[3]": {"system": "Mus musculus", "experiment": "Anti-obesity activity in male C57BL/6 mouse model of high-fat diet induced obesity assessed as body weight change at 100 mg/kg, po administered once a day for 9 weeks relative to control", "assay_type": "functional"}, "[4]": {"system": "Mus musculus", "experiment": "Anti-obesity activity in female C57BL/6 mouse model of high-fat diet induced obesity assessed as body weight change at 40 mg/kg, po administered once daily for 16 weeks relative to control", "assay_type": "functional"}, "[5]": {"system": "Mus musculus", "experiment": "Anti-obesity activity in ovariectomized C57BL/6 mouse assessed as body weight change at 40 mg/kg, po administered once daily for 16 weeks relative to control", "assay_type": "functional"}, "[6]": {"system": "Mus musculus", "experiment": "Anti-obesity activity in male C57BL/6 mouse model of high-fat diet induced obesity assessed as body weight change at 20 mg/kg, ip administered twice a week for 12 weeks relative to control", "assay_type": "functional"}, "[7]": {"system": "Mus musculus", "experiment": "Anti-obesity activity in male C57BL/6 mouse model of high-fat diet induced obesity assessed as body weight change at 30 mg/kg, po administered once a day for 8 weeks relative to control", "assay_type": "functional"}, "[8]": {"system": "Mus musculus", "experiment": "Anti-obesity activity in female C57BL/6 mouse model of high-fat diet induced obesity assessed as body weight change at 0.005 % (w/v) administered orally for 16 weeks relative to control", "assay_type": "functional", "details": "route po"}, "[9]": {"system": "Mus musculus", "experiment": "Anti-obesity activity in Swiss male mouse model of high-fat diet induced obesity assessed as body weight change at 10 mg/kg, po administered for 15 weeks relative to control", "assay_type": "functional"}, "[10]": {"system": "Mus musculus", "experiment": "Anti-obesity activity in male C57BL/6 mouse model of high-fat diet induced obesity assessed as body weight change at 50 mg/kg, po administered once a day for 9 weeks relative to control", "assay_type": "functional"}, "[11]": {"target": "T1, Dihydrolipoyllysine-residue acetyltransferase component of pyruvate dehydrogenase complex, mitochondrial (Homo sapiens, UniProt P10515)", "T1 sequence (P10515 whole entry)": "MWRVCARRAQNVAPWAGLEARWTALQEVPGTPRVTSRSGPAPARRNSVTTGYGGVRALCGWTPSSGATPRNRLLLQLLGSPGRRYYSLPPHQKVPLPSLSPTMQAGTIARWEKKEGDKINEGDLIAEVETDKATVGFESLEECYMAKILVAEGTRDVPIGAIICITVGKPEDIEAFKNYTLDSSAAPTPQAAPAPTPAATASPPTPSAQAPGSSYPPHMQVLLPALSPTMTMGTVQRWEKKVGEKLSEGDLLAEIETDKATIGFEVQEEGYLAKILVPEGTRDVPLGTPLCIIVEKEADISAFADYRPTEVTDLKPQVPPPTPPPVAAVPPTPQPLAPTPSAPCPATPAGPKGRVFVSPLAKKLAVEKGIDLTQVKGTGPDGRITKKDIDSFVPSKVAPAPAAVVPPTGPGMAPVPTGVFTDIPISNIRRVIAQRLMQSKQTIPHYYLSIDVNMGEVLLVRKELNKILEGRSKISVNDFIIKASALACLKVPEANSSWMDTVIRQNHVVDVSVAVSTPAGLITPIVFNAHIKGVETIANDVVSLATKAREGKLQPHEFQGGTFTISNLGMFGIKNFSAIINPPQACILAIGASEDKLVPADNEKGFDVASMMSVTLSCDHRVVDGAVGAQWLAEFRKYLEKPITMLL", "experiment": "Binding affinity to recombinant GFP fused […] (unknown origin) by Lip-SMap analysis"}, "[12]": {"system": "Mus musculus", "experiment": "Anti-obesity activity in male C57BL/6 mouse model of high-fat diet induced obesity assessed as body weight change at 2.5 mg/kg, ip administered once a day for 8 weeks relative to control", "assay_type": "functional"}, "[13]": {"system": "Mus musculus", "experiment": "Anti-obesity activity in male C57BL/6 mouse model of high-fat diet induced obesity assessed as body weight change at 50 mg/kg, po administered once a day for 8 weeks relative to control", "assay_type": "functional"}, "[14]": {"system": "Mus musculus", "experiment": "Anti-obesity activity in male C57BL/6 mouse model of high-fat diet induced obesity assessed as body weight change at 150 mg/kg, po administered once a day for 4 weeks relative to control", "assay_type": "functional"}, "[15]": {"system": "Mus musculus", "experiment": "Anti-obesity activity in high-fat diet induced C57BL/6J obese mouse model assessed as body weight change at 150 mg/kg, po administered once daily for 4 weeks relative to control", "assay_type": "functional"}, "[16]": {"system": "Mus musculus", "experiment": "Anti-obesity activity in male C57BL/6 mouse model of high-fat diet induced obesity assessed as body weight change at 50 mg/kg, ip administered every other day for 5 weeks relative to control", "assay_type": "functional"}, "[17]": {"system": "Mus musculus", "experiment": "Anti-obesity activity in male C57BL/6 mouse model of high-fat diet induced obesity assessed as body weight change administered orally with 0.5 g in 500 g of HFD diet for 13 weeks relative to control", "assay_type": "functional", "details": "route po, at 0.5 g"}}}
{"smiles": "Cc1coc2c1C(=O)C(=O)c1c-2ccc2c(C)cccc12", "note": "[TANSHINONE I]", "values": [{"measurement": "Activity", "setting": "[1]", "result": 30.6, "unit": "%"}]}
{"smiles": "COc1cc2c(O)c3c(c(-c4ccc5c(c4)OCO5)c2cc1OC)C(=O)OC3", "note": "[DIPHYLLIN]", "values": [{"measurement": "IC50", "setting": "[2]", "result": 17, "unit": "nM"}, {"measurement": "Activity", "setting": "[3]", "result": 13.7, "unit": "%"}]}
{"smiles": "COc1cc(O)c2c(=O)oc(-c3ccccc3)cc2c1CC=C(C)C", "values": [{"measurement": "Activity", "setting": "[4]", "result": 28.6, "unit": "%"}, {"measurement": "Activity", "setting": "[5]", "result": 17.9, "unit": "%"}]}
{"smiles": "CC1(C)CC[C@]2(C(=O)O)CC[C@]3(C)C(=CC[C@@H]4[C@@]5(C)C[C@@H](O)[C@H](O)C(C)(C)[C@@H]5CC[C@]43C)[C@@H]2C1", "note": "[MASLINIC ACID]", "values": [{"measurement": "Activity", "setting": "[6]", "result": 18.2, "unit": "%"}]}
{"smiles": "CC1(C)[C@@H](O)CC[C@]2(C)[C@H]3C(=O)C=C4[C@@H]5C[C@@](C)(C(=O)O)CC[C@]5(C)CC[C@@]4(C)[C@]3(C)CC[C@@H]12", "note": "[ENOXOLONE]", "values": [{"measurement": "Activity", "setting": "[7]", "result": 30.2, "unit": "%"}]}
{"smiles": "CC1(C)CC[C@]2(C(=O)O)CC[C@]3(C)C(=CC[C@@H]4[C@@]5(C)CC[C@H](O)C(C)(C)[C@@H]5CC[C@]43C)[C@@H]2C1", "note": "[OLEANOLIC_ACID]", "values": [{"measurement": "Activity", "setting": "[8]", "result": 45, "unit": "%"}, {"measurement": "Activity", "setting": "[9]", "result": 71.9, "unit": "%"}]}
{"smiles": "CC1(C)C=Cc2cc(-c3coc4cc(O)ccc4c3=O)ccc2O1", "note": "[ISOWIGHTEONE]", "values": [{"measurement": "Activity", "setting": "[10]", "result": 8.3, "unit": "%"}]}
{"smiles": "CC(C)=CCC[C@]1(C)[C@@H](CC=C(C)C)C[C@]2(CC=C(C)C)C(=O)C(CC=C(C)C)=C(O)[C@@]1(C(=O)C(C)C)C2=O", "values": [{"measurement": "Kd", "setting": "[11]", "result": 578, "unit": "nM"}, {"measurement": "Activity", "setting": "[12]", "result": -13.7, "unit": "%"}]}
{"smiles": "COc1ccc(-c2coc3cc(O)ccc3c2=O)cc1", "note": "[FORMONONETIN]", "values": [{"measurement": "Activity", "setting": "[13]", "result": 18.8, "unit": "%"}]}
{"smiles": "CC1(C)C=Cc2c(ccc3c2OC[C@@H](c2ccc(O)cc2O)C3)O1", "note": "[GLABRIDIN]", "values": [{"measurement": "Activity", "setting": "[14]", "result": -16.7, "unit": "%"}, {"measurement": "Activity", "setting": "[15]", "result": -13.2, "unit": "%"}]}
{"smiles": "O=Cc1c(-c2nc3ccccc3c(=O)[nH]2)[nH]c2ccccc12", "values": [{"measurement": "Activity", "setting": "[16]", "result": -11.8, "unit": "%"}]}
{"smiles": "O=c1c(-c2ccc(O)c(O)c2)coc2cc(O)ccc12", "values": [{"measurement": "Activity", "setting": "[17]", "result": 63.5, "unit": "%"}]}
